# Assays:
# lime enzyme preparation [1] = assay: Effects of common enzyme cofactors on the lime enzyme; type: biochemical, Citrus aurantifolia; conditions: 1 mM final concentration
# Description: (§1) For the orange enzyme preparation, however, 1mM ATP inhibited the activity by almost 50%.
# [2] = tested on: orange enzyme preparation; assay: Effects of common enzyme cofactors on the orange enzyme; type: biochemical, Citrus sinensis; conditions: 1mM
# Description: as §1
# lime enzyme preparation [3] = assay: Effect of common blood components on the lime enzyme reaction; type: biochemical, Citrus aurantifolia
# Description: The bilirubin-degrading assay as described in Example 2 was carried out using a lime enzyme preparation obtained as described in Example 1. Urate (at either 1.2 mM or 297 µM) and creatinine (88.4 and 176.8 µM) in a serum-based matrix had no effect on either the rate or extent of bilirubin degradation by the Citrus enzyme. […] Tests that are interfered severely by bilirubin include e.g. uric acid, cholesterol, glucose, triglycerides, to mention just a few (See for example, Spain and Wu, Clin. Chem. 32:518, 1986). Also, in practice, one will use much higher levels of the enzyme than those used here (5-10 µL/assay, representing about 0.1-0.2 mg protein). In such cases, the effects on initial rates will most likely be overcome or reduced to well within tolerable limits.
# [4] = tested on: orange enzyme preparation; assay: Effect of common blood components on the orange enzyme reaction; type: biochemical, Citrus sinensis
# Description: The bilirubin-degrading assay as described under (A) was carried out using an orange enzyme preparation obtained as described in Example 1. […] It is to be noted that the amount of enzyme used for removing interferences can be increased, if desired, to speed up the process. […]
structure (smiles),measurement,setting,value
Nc1ncnc2c1ncn2[C@@H]1O[C@H](COP(=O)(O)OP(=O)(O)O)[C@@H](O)[C@H]1O [ADP],effect on the enzyme in the normal bilirubin-degrading assay,lime enzyme preparation [1],no demonstrable effect
Nc1ncnc2c1ncn2[C@@H]1O[C@H](COP(=O)(O)O)[C@@H](O)[C@H]1O [AMP],effect on the enzyme in the normal bilirubin-degrading assay,lime enzyme preparation [1],no demonstrable effect
Nc1ncnc2c1ncn2[C@@H]1O[C@H](COP(=O)(O)OP(=O)(O)OP(=O)(O)O)[C@@H](O)[C@H]1O [ATP],effect on the enzyme in the normal bilirubin-degrading assay,lime enzyme preparation [1],no demonstrable effect
same,activity inhibited,[2],~50%
NC(=O)C1=CN([C@@H]2O[C@H](COP(=O)(O)OP(=O)(O)OC[C@H]3O[C@@H](n4cnc5c(N)ncnc54)[C@H](O)[C@@H]3O)[C@@H](O)[C@H]2O)C=CC1 [NADH],effect on the enzyme in the normal bilirubin-degrading assay,lime enzyme preparation [1],no demonstrable effect
NC(=O)c1ccc[n+]([C@@H]2O[C@H](COP(=O)([O-])OP(=O)(O)OC[C@H]3O[C@@H](n4cnc5c(N)ncnc54)[C@H](O)[C@@H]3O)[C@@H](O)[C@H]2O)c1 [NAD],effect on the enzyme in the normal bilirubin-degrading assay,lime enzyme preparation [1],no demonstrable effect
Oc1nc(O)c2nc(O)[nH]c2n1 [Urate],effect on the rate or extent of bilirubin degradation,lime enzyme preparation [3]; at either 1.2 mM or 297 µM in a serum-based matrix,no effect
CC(C)CCC[C@@H](C)[C@H]1CC[C@H]2[C@@H]3CC=C4C[C@@H](O)CC[C@]4(C)[C@H]3CC[C@]12C [cholesterol],"overall yield of the enzymic reaction, of the control value",[4]; elevated cholesterol,90-95%
same,initial rate retarded,"[4]; elevated levels, for example at 10mM",10-20%
same,effect on reaction extent,"lime enzyme preparation [3]; 30-40 min. incubation, serum-like matrix",not significantly affected
same,slow down of the initial rate of the enzymic reaction on unconjugated bilirubin,lime enzyme preparation [3]; elevated levels (cholesterol e.g. 11 mM or 400 mg/dL),10-20%
NC(N)=O [urea],effect on the reaction of the orange enzyme,[4]; water-soluble serum analytes,largely unaffected

# Source: patent EP0320095A2, “Bilirubin degrading enzymes” (HEALTH & RESEARCH SERVICES INC., priority 1987, dated 1989)
